Experimental findings from US7932283B2, “Fungicide N-cyclopropyl-sulfonylamide derivatives” (Bayer Cropscience AG, priority 2006, dated 2011) are described below.

The first series is described as follows: logP by HPLC on reversed-phase column (C 18), EEC Directive 79/B31 Annex V.A8, methods A and B. It counts as physicochemical. The conditions noted are these: reversed-phase HPLC column (C 18), LogP method A: HPLC reversed-phase C 18, 43° C., 0.1% aqueous phosphoric acid / acetonitrile, linear gradient 10% to 90% acetonitrile. Here is the method:
Calibration was carried out using unbranched alkan-2-ones (having 3 to 16 carbon atoms) with known logP values (determination of the logP values by the retention times using linear interpolation between two successive alkanones).
In turn, `Cc1noc(C)c1C(=O)N(C1CC1)S(=O)(=O)c1ccc(C(F)(F)F)cc1` [Compound 588] yielded a chromatographic logP of 3.46.
Same read-out and setting: as for `CCc1onc(C(C)C)c1C(=O)N(C1CC1)S(=O)(=O)c1cccc(O)c1` [Compound 589], the figure is 4.18; as for `CCc1onc(C(C)C)c1C(=O)N(C1CC1)S(=O)(=O)c1ccc(C(F)(F)F)cc1` [Compound 590], 4.37.
The same measure, in the same setting: as for `Cc1noc(C)c1C(=O)N(C1CC1)S(=O)(=O)c1ccc(O)c(O)c1` [Compound 591], the figure is 3.72.
The same measure, in the same setting: as for `Cc1noc(C)c1C(=O)N(C1CC1)S(=O)(=O)c1ccc(O)cc1O` [Compound 592], the figure is 3.41; as for `Cc1noc(C)c1C(=O)N(C1CC1)S(=O)(=O)c1ccc(C(C)(C)C)cc1` [Compound 593], 4.03.
In the case of `CCc1onc(C(C)C)c1C(=O)N(C1CC1)S(=O)(=O)c1ccc(O)c(C(F)(F)F)c1` [Compound 594], the chromatographic logP is 4.82.
Take `CCc1onc(C(C)C)c1C(=O)N(C1CC1)S(=O)(=O)c1ccc(O)c(O)c1` [Compound 595]: the chromatographic logP is 4.77.
The same measure, in the same setting: as for `CCc1onc(C(C)C)c1C(=O)N(C1CC1)S(=O)(=O)c1ccc(O)cc1O` [Compound 596], the figure is 4.41; as for `CCc1onc(C(C)C)c1C(=O)N(C1CC1)S(=O)(=O)c1ccc(C(C)(C)C)cc1` [Compound 597], 4.98; as for `Cn1nc(C(=O)N(C2CC2)S(=O)(=O)c2ccccc2O)n(C)c1=O` [Compound 608], 1.97.
Same read-out and setting: as for `COCCn1c(C)c(C(=O)N(C2CC2)S(=O)(=O)c2cccc(O)c2)sc1=O` [Compound 609], the figure is 2.01.
Same read-out and setting: as for `COCCn1c(C)c(C(=O)N(C2CC2)S(=O)(=O)c2ccc(C(F)(F)F)cc2)sc1=O` [Compound 610], the figure is 2.01; as for `Cc1c(C(=O)N(C2CC2)S(=O)(=O)c2cccc(Cl)c2)sc(=O)n1C` [Compound 611], 1.01.
As for `Cc1c(C(=O)N(C2CC2)S(=O)(=O)c2ccc(C(F)(F)F)cc2)sc(=O)n1C` [Compound 612], the chromatographic logP is 2.01.
Same read-out and setting: the same measure for `Cc1c(C(=O)N(C2CC2)S(=O)(=O)c2cccc(O)c2)sc(=O)n1Cc1ccccc1` [Compound 613]: 2.01; for `Cc1c(C(=O)N(C2CC2)S(=O)(=O)c2ccc(C(F)(F)F)cc2)sc(=O)n1Cc1ccccc1` [Compound 614]: 4.08.
The same measure, in the same setting: as for `CCc1c(C(=O)N(C2CC2)S(=O)(=O)c2cccc(O)c2)sc(=O)n1C1CC1` [Compound 615], the figure is 2.01; as for `CCc1c(C(=O)N(C2CC2)S(=O)(=O)c2ccc(C(F)(F)F)cc2)sc(=O)n1C1CC1` [Compound 616], 2.01.
Still for that read-out and setting: the same measure for `CC(C)c1c(C(=O)N(C2CC2)S(=O)(=O)c2cccc(O)c2)sc(=O)n1C1CC1` [Compound 617]: 2.01; for `CC(C)c1c(C(=O)N(C2CC2)S(=O)(=O)c2ccc(C(F)(F)F)cc2)sc(=O)n1C1CC1` [Compound 618]: 4.03.
For the molecule `COCCn1c(C)c(C(=O)N(C2CC2)S(=O)(=O)c2ccc(O)c(C(F)(F)F)c2)sc1=O` [Compound 619], the chromatographic logP was determined as 2.01.
For `COCCn1c(C)c(C(=O)N(C2CC2)S(=O)(=O)c2ccc(O)cc2O)sc1=O` [Compound 620], the chromatographic logP came out at 2.01.
Same read-out and setting: as for `COCCn1c(C)c(C(=O)N(C2CC2)S(=O)(=O)c2ccc(C(C)(C)C)cc2)sc1=O` [Compound 621], the figure is 2.01; as for `Cc1c(C(=O)N(C2CC2)S(=O)(=O)c2ccc(O)c(C(F)(F)F)c2)sc(=O)n1C` [Compound 622], 2.01.
On the same count and under the same terms, as for `Cc1c(C(=O)N(C2CC2)S(=O)(=O)c2ccc(O)c(O)c2)sc(=O)n1C` [Compound 623], the figure is 2.01; as for `Cc1c(C(=O)N(C2CC2)S(=O)(=O)c2ccc(C(C)(C)C)cc2)sc(=O)n1C` [Compound 624], 2.01.
Same read-out and setting: as for `Cc1c(C(=O)N(C2CC2)S(=O)(=O)c2ccc(O)c(C(F)(F)F)c2)sc(=O)n1Cc1ccccc1` [Compound 625], the figure is 3.01; as for `Cc1c(C(=O)N(C2CC2)S(=O)(=O)c2ccc(O)c(O)c2)sc(=O)n1Cc1ccccc1` [Compound 626], 3.01; as for `Cc1c(C(=O)N(C2CC2)S(=O)(=O)c2ccc(O)cc2O)sc(=O)n1Cc1ccccc1` [Compound 627], 4.03.
`Cc1c(C(=O)N(C2CC2)S(=O)(=O)c2ccc(C(C)(C)C)cc2)sc(=O)n1Cc1ccccc1` [Compound 628] displayed a chromatographic logP of 3.01.
Same read-out and setting: as for `CCc1c(C(=O)N(C2CC2)S(=O)(=O)c2ccc(Cl)c(C(F)(F)F)c2)sc(=O)n1C1CC1` [Compound 629], the figure is 3.01; as for `CCc1c(C(=O)N(C2CC2)S(=O)(=O)c2ccc(O)c(O)c2)sc(=O)n1C1CC1` [Compound 630], 4.08.
`CCc1c(C(=O)N(C2CC2)S(=O)(=O)c2ccc(O)cc2O)sc(=O)n1C1CC1` [Compound 631] displayed a chromatographic logP of 2.01.
On the same count and under the same terms, as for `CCc1c(C(=O)N(C2CC2)S(=O)(=O)c2ccc(C(C)(C)C)cc2)sc(=O)n1C1CC1` [Compound 632], the figure is 3.01; as for `CC(C)c1c(C(=O)N(C2CC2)S(=O)(=O)c2ccc(O)c(C(F)(F)F)c2)sc(=O)n1C1CC1` [Compound 633], 3.01; as for `CC(C)c1c(C(=O)N(C2CC2)S(=O)(=O)c2ccc(O)c(O)c2)sc(=O)n1C1CC1` [Compound 634], 3.01.

Staying with this series, now noted: reversed-phase HPLC column (C 18), LogP method B: HPLC reversed-phase C 18, 40° C., 0.1% aqueous formic acid / acetonitrile, linear gradient 10% to 90% acetonitrile.
In turn, `COc1nn(C)cc1C(=O)N(C1CC1)S(=O)(=O)c1ccc(Oc2ccc(Cl)c(C(F)(F)F)c2)cc1Br` [Compound 479] returned a chromatographic logP of 4.2.
On the same count and under the same terms, as for `COc1nn(C)cc1C(=O)N(C1CC1)S(=O)(=O)c1ccc(Oc2ccc(Br)c(O)c2)cc1Br` [Compound 480], the figure is 4.2.
The same measure, in the same setting: the same measure for `COc1nn(C)cc1C(=O)N(C1CC1)S(=O)(=O)c1ccc(Oc2cc(O)cc(O)c2)cc1Br` [Compound 481]: 4.3.
Regarding `CCCCCc1ccc(Oc2ccc(S(=O)(=O)N(C(=O)c3cn(C)nc3OC)C3CC3)c(Br)c2)cc1` [Compound 482], the chromatographic logP worked out at 5.4.
Same read-out and setting: as for `CCOc1nn(C)cc1C(=O)N(C1CC1)S(=O)(=O)c1ccc(Oc2ccc(C)cc2)cc1Cl` [Compound 525], the figure is 2.2; as for `CCOc1nn(C)cc1C(=O)N(C1CC1)S(=O)(=O)c1ccc(Oc2ccc(C)nc2)cc1Br` [Compound 526], 2.3.
Still for that read-out and setting: the same measure for `CCOc1nn(C)cc1C(=O)N(C1CC1)S(=O)(=O)c1ccc(Oc2ccc(OC)c(OC)c2)cc1O` [Compound 527]: 3.2; for `CCOc1nn(C)cc1C(=O)N(C1CC1)S(=O)(=O)c1ccc(Oc2ccc(OC)cc2)cc1O` [Compound 529]: 3.5.
As to `CCOc1nn(C)cc1C(=O)N(C1CC1)S(=O)(=O)c1ccc(OC2=CC(N(C)C)=CCC2)cc1O` [Compound 532], the chromatographic logP was determined as 3.8.
The same measure, in the same setting: as for `CCOc1nn(C)cc1C(=O)N(C1CC1)S(=O)(=O)c1ccc(Oc2cccc(O)c2)cc1O` [Compound 534], the figure is 3.9; as for `CCOc1nn(C)cc1C(=O)N(C1CC1)S(=O)(=O)C1C=CC(Oc2ccc(F)c(O)c2)=CC1O` (centres unmarked) [Compound 536], 4.
For the molecule `CCOc1nn(C)cc1C(=O)N(C1CC1)S(=O)(=O)c1ccc(Oc2ccccc2O)c(O)c1` [Compound 537], the chromatographic logP worked out at 4.1.
The same measure, in the same setting: as for `CCOc1nn(C)cc1C(=O)N(C1CC1)S(=O)(=O)c1ccc(Oc2cccc(Br)c2)cc1Br` [Compound 540], the figure is 4.2; as for `CCOc1nn(C)cc1C(=O)N(C1CC1)S(=O)(=O)c1ccc(Oc2ccc(Br)cc2)cc1Br` [Compound 541], 4.2; as for `CCOc1nn(C)cc1C(=O)N(C1CC1)S(=O)(=O)c1ccc(Oc2ccc(O)cc2Cl)cc1O` [Compound 543], 4.3.
On the same count and under the same terms, the same measure for `CCOc1nn(C)cc1C(=O)N(C1CC1)S(=O)(=O)C1C=CC(Oc2ccc(Br)c(O)c2)=CC1O` (centres unmarked) [Compound 544]: 4.3.
Still for that read-out and setting: the same measure for `CCOc1nn(C)cc1C(=O)N(C1CC1)S(=O)(=O)C1C=CC(Oc2cccc(C(F)(F)F)c2)=C(O)C1` (centres unmarked) [Compound 549]: 4.4; for `CCOc1nn(C)cc1C(=O)N(C1CC1)S(=O)(=O)c1ccc(Oc2ccc(Cl)c(C(F)(F)F)c2)cc1Br` [Compound 553]: 4.5; for `CCCCCc1ccc(Oc2ccc(S(=O)(=O)N(C(=O)c3cn(C)nc3OCC)C3CC3)c(Br)c2)cc1` [Compound 560]: 5.6.
`Cc1nn(C)c(C(=O)N(C2CC2)S(=O)(=O)c2cccc(O)c2O)c1Cl` [Compound 586] registered a chromatographic logP of 3.7.
`Cc1nocc1C(=O)N(C1CC1)S(=O)(=O)c1cccc(O)c1O` [Compound 599] yielded a chromatographic logP of 3.
Same read-out and setting: as for `Cc1nocc1C(=O)N(C1CC1)S(=O)(=O)c1ccc(O)c(O)c1O` [Compound 600], the figure is 3.6; as for `Cc1nocc1C(=O)N(C1CC1)S(=O)(=O)c1ccc(Oc2ccccc2)cc1` [Compound 601], 3.7.
Still for that read-out and setting: as for `Cc1nocc1C(=O)N(C1CC1)S(=O)(=O)c1ccc(Oc2ccc(Br)cc2)cc1` [Compound 602], the figure is 4.2; as for `Cc1oncc1C(=O)N(C1CC1)S(=O)(=O)c1cccc(O)c1O` [Compound 603], 2.2; as for `Cc1oncc1C(=O)N(C1CC1)S(=O)(=O)c1ccc(O)c(O)c1O` [Compound 604], 2.6.
Still for that read-out and setting: the same measure for `Cc1oncc1C(=O)N(C1CC1)S(=O)(=O)c1ccc(Oc2ccc(Br)cc2)cc1` [Compound 605]: 3.4; for `Cc1oncc1C(=O)N(C1CC1)S(=O)(=O)c1ccc(Oc2ccccc2)cc1` [Compound 606]: 3.7.

As a reminder, the chromatographic logP is a lipophilicity value derived from retention on a column. A higher chromatographic logP goes with higher lipophilicity.
